Experimental data: patent US11952346B2, “Modulators of mas-related G-protein receptor X2 and related products and methods” (Escient Pharmaceuticals, Inc., priority 2020, dated 2024)

Each compound was assayed against T1, human MRGPRX2 (Homo sapiens, UniProt Q96LB1) (assay: MRGPRX2 antagonist activity, IP-One HTRF assay in CHO cells expressing human MRGPRX2 versus Cortistatin-14). Settings: CHO cells stably expressing human MRGPRX2; versus 0.3 uM Cortistatin-14 agonist; IP-1 HTRF readout; read-out: MRGPR2 Antagonist Activity.
T1 construct: expressed in transfected cells
T1 sequence (Q96LB1 1-330): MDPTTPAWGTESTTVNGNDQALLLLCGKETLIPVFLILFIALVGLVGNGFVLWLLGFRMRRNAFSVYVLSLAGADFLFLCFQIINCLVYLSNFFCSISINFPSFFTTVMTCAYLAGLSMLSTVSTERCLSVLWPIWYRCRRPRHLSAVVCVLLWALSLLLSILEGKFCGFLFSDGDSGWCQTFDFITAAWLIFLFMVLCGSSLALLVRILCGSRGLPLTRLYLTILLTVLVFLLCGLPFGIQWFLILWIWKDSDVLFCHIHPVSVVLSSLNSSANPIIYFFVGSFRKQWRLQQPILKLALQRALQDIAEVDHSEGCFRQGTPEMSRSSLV
Assay type: cell-based
Protocol: CHO cells stably transfected to express human MRGPRX2 were maintained in an incubator at 37° C. with 5% CO2 and grown in F12 (HAM) media with 10% fetal bovine serum (FBS), 1% Glutamax, 1% penicillin/streptomycin, 800 μg/mL Geneticin (G418), and 300 μg/mL Hygromycin B. Cells were plated in a 384-well assay plate at 20,000 cells per well in 12 μL of Opti-MEM and kept in an incubator overnight. On the day of the assay, compounds solubilized at 10 mM in DMSO were added as a 10-point curve (30 uM final top concentration with 1:3 serial dilutions) using a Tecan D300E digital dispenser. Agonists were diluted in assay buffer (final concentrations of 5.7 mM Tris-HCl, 43 mM NaCl, 50 mM LiCI, pH=8) and 2 μL of the agonist Cortistatin-14 (CPC Scientific, catalog CORT-002) are added to each well. Final concentrations of agonists were […] Cortistatin-14. Final concentrations of DMSO were kept consistent across the plate. Plates were incubated in the dark for 1 hr at 37° C. and then for 1 hr at room temperature. IP-1 standards and HTRF detection reagents were added according to the IP-One—Gq Kit purchased from Cisbio (part number 621PAPEJ) and incubated in the dark for 1 hr at room temperature. The plate was read on a Molecular Devices SpectraMax iD5 plate reader. The HTRF ratio was calculated from the raw data and graphed using GraphPad Prism to calculate an IC50 value for each compound.
The activity ranges are denoted as follows: “+++++” denotes antagonist activity <100 nM; “++++” denotes antagonist activity between 100 and 500 nM; “+++” denotes activity between 501 and 1000 nM; “++” denotes activity between 1001 and 2500 nM; and “+” denotes activity >2500 nM.

Row | IC50 [µM] | SMILES
1 | 1 to 2.5 | CN(C)c1ccc(C(=O)N[C@H]2CC[C@@H](Nc3cc(N(C)C)nc(C(F)(F)F)c3)CC2)cc1 [2-1]
2 | 0.1 to 0.5 | O=C(N[C@H]1CC[C@@H](Nc2cc(C(F)(F)F)nc(C(F)(F)F)c2)CC1)c1cccc2ncsc12 [4-9]
3 | 0.1 to 0.5 | O=C(N[C@H]1CC[C@@H](Nc2cc(C(F)(F)F)nc(C(F)(F)F)c2)CC1)c1ccc(-n2cnnn2)cc1 [4-30]
4 | 1 to 2.5 | CN1CCC(C(=O)N[C@H]2CC[C@@H](Nc3cc(C(F)(F)F)nc(C(F)(F)F)c3)CC2)C1 (stereo partly shown) [4-40]
5 | 1 to 2.5 | CN1CCCc2ccc(C(=O)N[C@H]3CC[C@@H](Nc4cc(C(F)(F)F)nc(C(F)(F)F)c4)CC3)cc21 [4-15]
6 | 0.1 to 0.5 | O=C(N[C@H]1CC[C@@H](Nc2cc(C(F)(F)F)nc(C(F)(F)F)c2)CC1)n1cccc1 [4-2]

Second part, the compound before the results:

Row | SMILES | IC50 [µM]
7 | Cc1cc(N[C@H]2CC[C@@H](NC(=O)c3ccnc(NC(C)C)c3)CC2)cc(C(F)(F)F)c1C#N [5-2] | < 0.1
8 | CN(C)c1ccc(C(=O)N[C@H]2CC[C@@H](Nc3ccc(C#N)c(C(F)(F)F)c3)CC2)cc1 [1-21] | < 0.1
9 | COc1ccc(C(=O)N[C@H]2CC[C@@H](Nc3cc(C(F)(F)F)nc(N(C)C)n3)CC2)cc1 [Example 16, N-(1S,4S)-[4-[[2-(dimethylamino)-6-(trifluoromethyl)pyrimidin-4-yl]amino]cyclohexyl]-4-methoxy-benzamide] | 0.501 to 1
10 | N#Cc1ccc(N[C@H]2CC[C@@H](NC(=O)c3cccc4[nH]ccc34)CC2)cc1C(F)(F)F [1-12] | < 0.1
11 | O=C(N[C@H]1CC[C@@H](Nc2cc(C(F)(F)F)nc(N3CCCC3)n2)CC1)c1ccc(F)cc1 [1-9] | 1 to 2.5
12 | N#Cc1ccc(N[C@H]2CC[C@@H](NC(=O)c3ccnc4cn[nH]c34)CC2)cc1C(F)(F)F [4-58] | < 0.1
13 | N#Cc1ccc(N[C@H]2CC[C@@H](NC(=O)c3cnn(CC(F)(F)F)c3)CC2)cc1C(F)(F)F [Example 17, N-((1s,4s)-4-((4-cyano-3-(trifluoromethyl)phenyl)amino)cyclohexyl)-1-(2,2,2-trifluoroethyl)-1H-pyrazole-4-carboxamide] | < 0.1
